Source: patent US20260232671A1, “PHARMACEUTICAL COMPOSITION FOR LOCAL ADMINISTRATION, PREPARATION METHOD THEREFOR, AND USE THEREOF” (priority 2023, published 2026)

Columns and labels:
[1] = system: freshly excised skin samples from Bama miniature pigs; experiment: IVPT, Franz diffusion cells, Example 12; format: in vitro ADME; conditions: penetration enhancer 7% in 1% solution, compared with the solution in the blank group
Experimental: The penetrability of the API in the topical formulations was studied using freshly excised skin samples from Bama miniature pigs mounted in Franz diffusion cells. The fresh skin of Bama miniature pigs was depilated and then stored at −20° C. for later use. On the morning of the experiment, the skin was taken out and thawed, and after the transepidermal water loss value of the skin was detected to be less than 30, the skin was ready for use. The skin was cut to a size suitable for placing the pig skin samples between the donor and receiver compartments, and the pig skin samples were placed between the donor and receiver compartments of the Franz diffusion cell. About 60 mg of the sample was evenly applied to the pig skin. The opening of the Franz cell was 3.14 cm^2. 8.0 mL of a receiver solution was used. At 0.5 h, 2 h, […], and 24 h, 1.0 mL of the sample was removed and replaced with a new receiver solution. At 24 h, the skin was collected. The pig skin was treated, the epidermal and dermis layers were separated and extracted with a skin extract solution, and the residual drug amount, drug concentrations in the epidermal and dermis layers, and drug penetration concentration were detected by HPLC.

[2] = Preparation of solutions: clear or turbid phenomenon in solvent mixtures; format: physicochemical

Row | Compound | skin penetration-enhancing effect [1] | preparation of a clear solution ([2]; concentration of dimethyl sulfoxide maintained at a high level, addition of a trace amount of water) | state of the solutions ([2]; concentration of the active ingredient 1%, dimethyl sulfoxide replaced with ethanol, propylene glycol, polyethylene glycol 400, or dimethylformamide) | Phenomenon ([2]; mass %: active ingredient 1, diethylene glycol monoethyl ether 40, dimethylformamide 45, propylene glycol 14) | Phenomenon ([2]; mass %: active ingredient 1, diethylene glycol monoethyl ether 40, ethanol 50, propylene glycol 9) | Phenomenon ([2]; mass %: active ingredient 1, diethylene glycol monoethyl ether 40, polyethylene glycol 400 59) | Phenomenon ([2]; mass %: active ingredient 1, diethylene glycol monoethyl ether 40, propylene glycol 59) | Phenomenon ([2]; mass %: active ingredient 1, dimethyl sulfoxide 10, diethylene glycol monoethyl ether 40, polyethylene glycol 400 49) | Phenomenon ([2]; mass %: active ingredient 1, dimethyl sulfoxide 35, diethylene glycol monoethyl ether 10, glycerol 20, propylene glycol 34) | Phenomenon ([2]; mass %: active ingredient 1, dimethyl sulfoxide 35, diethylene glycol monoethyl ether 30, glycerol 20, propylene glycol 14) | Phenomenon ([2]; mass %: active ingredient 1, dimethyl sulfoxide 40, diethylene glycol monoethyl ether 15, glycerol 20, propylene glycol 14, water 10) | Phenomenon ([2]; mass %: active ingredient 1, dimethyl sulfoxide 40, diethylene glycol monoethyl ether 15, propylene glycol 14, water 30) | Phenomenon ([2]; mass %: active ingredient 1, dimethyl sulfoxide 40, diethylene glycol monoethyl ether 35, propylene glycol 14, water 10) | Phenomenon ([2]; mass %: active ingredient 1, dimethyl sulfoxide 40, diethylene glycol monoethyl ether 40, glycerol 5, propylene glycol 14) | Phenomenon ([2]; mass %: active ingredient 1, dimethylformamide 45, propylene glycol 54) | Phenomenon ([2]; mass %: active ingredient 1, ethanol 45, propylene glycol 54) | Phenomenon ([2]; mass %: active ingredient 1.5, dimethyl sulfoxide 45, diethylene glycol monoethyl ether 40, propylene glycol 13.5) | Phenomenon ([2]; mass %: active ingredient 2, dimethyl sulfoxide 45, diethylene glycol monoethyl ether 40, propylene glycol 12)
1 | CC(O)C(=O)O (stereo not shown) [lactic acid] | relatively good skin penetration-enhancing effect | – | – | – | – | – | – | – | – | – | – | – | – | – | – | – | – | –
2 | propylene glycol monocaprylate | certain skin penetration-enhancing effect | – | – | – | – | – | – | – | – | – | – | – | – | – | – | – | – | –
3 | COc1nsc(NC(=O)N2C[C@H]3CC(N(C)c4ncnc5[nH]ccc45)C[C@H]3C2)n1 (stereo partly drawn) [Active ingredient in free base form, (3aR,5s,6aS)—N-(3-methoxy-1,2,4-thiadiazol-5-yl)-5-(methyl(7H-pyrrolo[2,3-d]pyrimidin-4-yl)amino)hexahydrocyclopenta[c]pyrrole-2(1H)-carboxamide] | – | failed to prepare a clear solution above 1% concentration | suspensions | Turbid | Turbid | Turbid | Turbid | Turbid | Clear | Clear | Turbid | Turbid | Turbid | Clear | Turbid | Turbid | Clear | Clear
